Measured values: patent US20260274832A1, “COMPOUNDS AND THEIR USE IN TREATING CANCER” (ASTRAZENECA AB, priority 2023, published 2026)

Tests used:
[1] = target: T1, AR (AR-full length) in LNCaP cells (Homo sapiens, UniProt P10275, T878A); assay: LNCaP Androgen Receptor Imaging Assay (immunofluorescence of endogenous nuclear AR); format: cell-based; settings: 24 h incubation; for DC50: concentration giving 50% of maximum degradation of AR per curve fit, single experiment or average of two or more; for Dmax: LNCaP, maximum degradation observed, normalized as % of positive control (prior art AR PROTAC at 3 μM)
T1 construct: the prostate cancer cell line LNCaP (expressing AR-full length); endogenous in cells; host or cells: LNCaP
T1 sequence (P10275 whole entry T878A): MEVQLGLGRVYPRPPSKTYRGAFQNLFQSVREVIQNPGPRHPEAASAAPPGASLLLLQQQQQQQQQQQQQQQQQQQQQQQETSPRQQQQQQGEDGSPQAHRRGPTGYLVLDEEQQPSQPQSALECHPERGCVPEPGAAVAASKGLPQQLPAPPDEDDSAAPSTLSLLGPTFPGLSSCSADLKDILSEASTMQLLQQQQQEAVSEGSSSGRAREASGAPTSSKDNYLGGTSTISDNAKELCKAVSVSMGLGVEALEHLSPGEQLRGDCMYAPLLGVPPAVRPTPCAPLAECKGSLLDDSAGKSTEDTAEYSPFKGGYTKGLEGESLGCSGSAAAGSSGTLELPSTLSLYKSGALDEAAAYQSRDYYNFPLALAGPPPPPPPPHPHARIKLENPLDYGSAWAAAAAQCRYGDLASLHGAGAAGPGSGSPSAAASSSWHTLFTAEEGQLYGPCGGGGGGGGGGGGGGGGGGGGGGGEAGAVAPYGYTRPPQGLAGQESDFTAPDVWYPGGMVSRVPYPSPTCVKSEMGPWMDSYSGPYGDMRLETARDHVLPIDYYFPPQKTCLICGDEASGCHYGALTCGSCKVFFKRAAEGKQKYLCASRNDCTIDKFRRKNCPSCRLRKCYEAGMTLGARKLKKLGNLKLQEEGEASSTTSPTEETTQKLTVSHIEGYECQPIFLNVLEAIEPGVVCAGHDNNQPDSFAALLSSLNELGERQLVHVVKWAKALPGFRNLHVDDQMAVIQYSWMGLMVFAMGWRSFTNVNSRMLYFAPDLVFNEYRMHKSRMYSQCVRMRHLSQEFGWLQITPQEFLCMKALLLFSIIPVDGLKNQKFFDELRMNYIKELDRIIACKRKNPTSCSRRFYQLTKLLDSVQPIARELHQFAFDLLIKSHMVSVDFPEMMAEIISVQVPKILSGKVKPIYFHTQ
T1 sequence (Q96SW2 whole entry partner): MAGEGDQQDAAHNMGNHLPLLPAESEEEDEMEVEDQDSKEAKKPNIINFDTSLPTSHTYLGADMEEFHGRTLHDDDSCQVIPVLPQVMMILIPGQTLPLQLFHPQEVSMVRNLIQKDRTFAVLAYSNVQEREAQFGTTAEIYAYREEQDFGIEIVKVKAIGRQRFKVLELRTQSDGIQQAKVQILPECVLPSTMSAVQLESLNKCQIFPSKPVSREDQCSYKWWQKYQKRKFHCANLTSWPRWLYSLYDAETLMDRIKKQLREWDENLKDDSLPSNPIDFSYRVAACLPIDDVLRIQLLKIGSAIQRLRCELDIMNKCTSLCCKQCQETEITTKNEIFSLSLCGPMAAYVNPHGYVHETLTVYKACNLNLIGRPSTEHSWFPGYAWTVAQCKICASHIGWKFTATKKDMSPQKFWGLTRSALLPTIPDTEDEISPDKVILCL
Method in brief: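 Endogenous nuclear AR level was imaged by immunofluorescence after 24 h compound exposure (12-point dose response, 0.3% DMSO, 37° C./5% CO2) in LNCaP cells. Data were expressed as % of a 3 μM prior-art AR PROTAC control and fitted (bell fit where a hook appeared) to give DC50 and maximum degradation Dmax.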

[2] = target: T2, AR (L702H) in LNCaP cells (Homo sapiens, UniProt P10275, L702H/T878A); assay: LNCaP Androgen Receptor L702H Imaging Assay (LNCaP cells engineered by CRISPR/Cas9); format: cell-based; settings: LNCaP cells with AR L702H mutation, 24 h incubation; for DC50: concentration giving 50% of maximum degradation of AR (L702H) per curve fit; for Dmax: LNCaP, maximum degradation observed, normalized as % of positive control
T2 construct: engineered to introduce the mutation L702H into the AR gene using CRISPR/Cas9; endogenous in cells; host or cells: LNCaP cells edited by CRISPR/Cas9 at the AR gene
T2 sequence (P10275 whole entry L702H/T878A): as the sequence (P10275 whole entry T878A) above, with L702H counted along it
T2 sequence (Q96SW2 whole entry partner): as the sequence (Q96SW2 whole entry partner) above
Method in brief: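 AR (L702H) degradation, expressed as DC50 and Dmax from curve fits normalized to a positive degrader control, was measured by high-content imaging of anti-AR immunofluorescence. The engineered LNCaP line was dosed over 12 concentrations for 24 h, 0.3% DMSO final, before PFA fixation.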

| Compound | DC50 [1] | Dmax [1] | DC50 [2] | Dmax [2] |
| --- | --- | --- | --- | --- |
| N#Cc1c[nH]c2c(N3CCC[C@@H](c4ccc(N5CCC(CN6CCN(c7ccc8c(c7)CN(C7CCC(=O)NC7=O)C8=O)CC6)CC5)cc4)C3)ccc(F)c12 (stereo partly drawn) [Example 24, 7-[(3S)-3-{4-[4-({4-[2-(2,6-dioxopiperidin-3-yl)-1-oxo-2,3-dihydro-1H-isoindol-5-yl]piperazin-1-yl}methyl)piperidin-1-yl]phenyl}piperidin-1-yl]-4-fluoro-1H-indole-3-carbonitrile] | 6 nM | 100% | 18 nM | 83% |
| N#Cc1c[nH]c2c(N3CCC(NC(=O)c4ncc(N5CCC(CN6CCC(n7ccc8c(N9CCC(=O)NC9=O)cccc87)CC6)CC5)cn4)CC3)ccc(Cl)c12 [Example 177, N-[1-(4-Chloro-3-cyano-1H-indol-7-yl)piperidin-4-yl]-5-[4-({4-[4-(2,4-dioxo-1,3-diazinan-1-yl)-1H-indol-1-yl]piperidin-1-yl}methyl)piperidin-1-yl]pyrimidine-2-carboxamide] | 2 nM | 107% | 15 nM | 40% |
| Cc1cc2c(N3CCC(=O)NC3=O)cccc2n1C1CCN(CC2CCN(c3ccc([C@@H]4CCCN(c5ccc(Cl)c6c(C#N)c[nH]c56)C4)cc3)CC2)CC1 [Example 114, 4-Chloro-7-[(3S)-3-{4-[4-({4-[4-(2,4-dioxo-1,3-diazinan-1-yl)-2-methyl-1H-indol-1-yl]piperidin-1-yl}methyl)piperidin-1-yl]phenyl}piperidin-1-yl]-1H-indole-3-carbonitrile] | 19 nM | 101% | 31 nM | 101% |
| COc1nc(N2CCN(CC3CCN(c4ccc([C@H]5CCCN(c6ccc(Cl)c7c(C#N)c[nH]c67)C5)cc4)CC3)CC2)cc2c1C(=O)N(C1CCC(=O)NC1=O)C2 (stereo partly drawn) [Example 47, 4-Chloro-7-[(3R)-3-{4-[4-({4-[2-(2,6-dioxopiperidin-3-yl)-4-methoxy-3-oxo-2,3-dihydro-1H-pyrrolo[3,4-c]pyridin-6-yl]piperazin-1-yl}methyl)piperidin-1-yl]phenyl}piperidin-1-yl]-1H-indole-3-carbonitrile] | 7 nM | 84% | 7 nM | 100% |
| COc1cc(N2CCN(CC3CCN(c4ccc(C5CCN(c6ccc(F)c7c(C#N)c[nH]c67)CC5)cc4)CC3)CC2)cc2c1C(=O)N(C1CCC(=O)NC1=O)C2 (stereo not shown) [Example 20, 7-(4-{4-[4-({4-[2-(2,6-Dioxopiperidin-3-yl)-7-methoxy-1-oxo-2,3-dihydro-1H-isoindol-5-yl]piperazin-1-yl}methyl)piperidin-1-yl]phenyl}piperidin-1-yl)-4-fluoro-1H-indole-3-carbonitrile] | 9 nM | 94% | 8 nM | 101% |
| Cn1c(=O)n(C2CCC(=O)NC2=O)c2cccc(CN3CCN(CC4CCN(c5ccc(C6CCN(c7ccc(F)c8c(C#N)c[nH]c78)CC6)cc5)CC4)CC3)c21 (stereo not shown) [Example 71, 7-[4-(4-{4-[(4-{[1-(2,6-Dioxopiperidin-3-yl)-3-methyl-2-oxo-2,3-dihydro-1H-benzimidazol-4-yl]methyl}piperazin-1-yl)methyl]piperidin-1-yl}phenyl)piperidin-1-yl]-4-fluoro-1H-indole-3-carbonitrile] | 7 nM | 84% | 7 nM | 94% |
| N#Cc1c[nH]c2c(N3CCC(c4ccc(C(=O)N5CCC(CN6CCN(c7ccc8c(c7)CN(C7CCC(=O)NC7=O)C8=O)CC6)CC5)cc4)CC3)ccc(Cl)c12 (stereo not shown) [Example 85, 4-Chloro-7-(4-{4-[4-({4-[2-(2,6-dioxopiperidin-3-yl)-1-oxo-2,3-dihydro-1H-isoindol-5-yl]piperazin-1-yl}methyl)piperidine-1-carbonyl]phenyl}piperidin-1-yl)-1H-indole-3-carbonitrile] | 4 nM | 98% | 17 nM | 83% |
| COc1nc(N2CCC(CN3CCC(c4ccc(N5CCCC(c6ccc(Cl)c7c(C#N)c[nH]c67)C5)cc4)CC3)CC2)cc2c1C(=O)N(C1CCC(=O)NC1=O)C2 (single isomer, unassigned) [Example 98, 4-Chloro-7-[(3R*)-1-{4-[1-({1-[2-(2,6-dioxopiperidin-3-yl)-4-methoxy-3-oxo-2,3-dihydro-1H-pyrrolo[3,4-c]pyridin-6-yl]piperidin-4-yl}methyl)piperidin-4-yl]phenyl}piperidin-3-yl]-1H-indole-3-carbonitrile] | 90 nM | 40% | 15 nM | 83% |
| N#Cc1c[nH]c2c(N3CCC(NC(=O)c4ccc(N5CCC(CN6CCN(c7ccc8c(c7)CN(C7CCC(=O)NC7=O)C8=O)CC6)CC5)cc4F)CC3)ccc(Cl)c12 (stereo not shown) [Example 159, N-[1-(4-Chloro-3-cyano-1H-indol-7-yl)piperidin-4-yl]-4-[4-({4-[2-(2,6-dioxopiperidin-3-yl)-1-oxo-2,3-dihydro-1H-isoindol-5-yl]piperazin-1-yl}methyl)piperidin-1-yl]-2-fluorobenzamide] | 2 nM | 101% | 3 nM | 106% |
| N#Cc1c[nH]c2c(N3CCC(c4ccc(N5CCC(CN6CCN(c7ccc8c(c7)CN(C7CCC(=O)NC7=O)C8=O)CC6)CC5)nc4)CC3)ccc(Cl)c12 (stereo not shown) [Example 109, 4-Chloro-7-(4-{6-[4-({4-[2-(2,6-dioxopiperidin-3-yl)-1-oxo-2,3-dihydro-1H-isoindol-5-yl]piperazin-1-yl}methyl)piperidin-1-yl]pyridin-3-yl}piperidin-1-yl)-1H-indole-3-carbonitrile] | 5 nM | 97% | 10 nM | 96% |

Further compounds by falling DC50 [1], results first:

| DC50 [1] | Dmax [1] | DC50 [2] | Dmax [2] | Compound |
| --- | --- | --- | --- | --- |
| 421 nM | 70% | 56 nM | 97% | N#Cc1c[nH]c2c(N3CCC(c4ccc(N5CCC(CN6CCC(n7ccc8cc(N9CCC(=O)NC9=O)ccc87)CC6)CC5)cc4)CC3)ccc(F)c12 [Example 89, 7-(4-{4-[4-({4-[5-(2,4-Dioxo-1,3-diazinan-1-yl)-1H-indol-1-yl]piperidin-1-yl}methyl)piperidin-1-yl]phenyl}piperidin-1-yl)-4-fluoro-1H-indole-3-carbonitrile] |
| 24 nM | 105% | 81 nM | 91% | N#Cc1c[nH]c2c(N3CCC(c4ccc(N5CC6(CCC(CN7CCC(n8ccc9c(N%10CCC(=O)NC%10=O)cccc98)CC7)CC6)C5)cc4)CC3)ccc(F)c12 [Example 135, 7-(4-{4-[7-({4-[4-(2,4-Dioxo-1,3-diazinan-1-yl)-1H-indol-1-yl]piperidin-1-yl}methyl)-2-azaspiro[3.5]nonan-2-yl]phenyl}piperidin-1-yl)-4-fluoro-1H-indole-3-carbonitrile] |
| 18 nM | 85% | 17 nM | 99% | N#Cc1c[nH]c2c(N3CCC(c4ccc(N5CCC(CN6CCN(c7ccc8c(c7)CN(C7CCC(=O)NC7=O)C8=O)CC6)CC5)cc4)CC3)ccc(F)c12 (single isomer, unassigned) [Example 3, 7-(4-{4-[4-({4-[2-(2,6-Dioxopiperidin-3-yl)-1-oxo-2,3-dihydro-1H-isoindol-5-yl]piperazin-1-yl}methyl)piperidin-1-yl]phenyl}piperidin-1-yl)-4-fluoro-1H-indole-3-carbonitrile] |
| 15 nM | 90% | 11 nM | 100% | COc1nc(N2CCN(CC3CCN(c4ccc(C5CCN(c6ccc(F)c7c(C#N)c[nH]c67)CC5)cc4)CC3)CC2)cc2c1C(=O)N(C1CCC(=O)NC1=O)C2 (stereo not shown) [Example 37, 7-(4-{4-[4-({4-[2-(2,6-Dioxopiperidin-3-yl)-4-methoxy-3-oxo-2,3-dihydro-1H-pyrrolo[3,4-c]pyridin-6-yl]piperazin-1-yl}methyl)piperidin-1-yl]phenyl}piperidin-1-yl)-4-fluoro-1H-indole-3-carbonitrile] |
| 14 nM | 95% | 18 nM | 104% | Cc1cc2c(N3CCC(=O)NC3=O)cccc2n1C1CCN(CC2CCN(c3ccc(C4CCN(c5ccc(Cl)c6c(C#N)c[nH]c56)CC4)cc3)CC2)CC1 [Example 123, 4-Chloro-7-(4-{4-[4-({4-[4-(2,4-dioxo-1,3-diazinan-1-yl)-2-methyl-1H-indol-1-yl]piperidin-1-yl}methyl)piperidin-1-yl]phenyl}piperidin-1-yl)-1H-indole-3-carbonitrile] |
| 9 nM | 98% | 40 nM | 70% | N#Cc1n[nH]c2c(N3CCC(c4ccc(N5CCC(CN6CCN(c7ccc8c(c7)CN(C7CCC(=O)NC7=O)C8=O)CC6)CC5)cc4)CC3)ccc(F)c12 (stereo not shown) [Example 145, 7-(4-{4-[4-({4-[2-(2,6-Dioxopiperidin-3-yl)-1-oxo-2,3-dihydro-1H-isoindol-5-yl]piperazin-1-yl}methyl)piperidin-1-yl]phenyl}piperidin-1-yl)-4-fluoro-1H-indazole-3-carbonitrile] |
